Assay results from ChEMBL document CHEMBL1201862, “PubChem BioAssay data set” (2004).
Activity calls are given as the source filed them.

How the values were obtained:
[1] = insulin promoter down-regulators in MIN6 cells, imaging, high-content screening, mouse beta cells (AID 1628); type: functional
[2] = cytotoxicity in MIN6 insulinoma cells, dose response, cytotoxicity control, cell-based, mouse insulinoma (AID 2122); type: functional;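 note: confirmatory high-throughput counterscreen run to flag cytotoxic compounds; mouse MIN-6 beta cells carrying an insulin promoter eGFP reporter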
SUMO-activating enzyme [3] = molecular target: T1, SUMO-activating enzyme (Homo sapiens, UniProt Q9UBT2); test: SUMOylation inhibitor hit validation, confirmation, SUMOylation inhibitor project, biochemical, AlphaScreen (AID 2018); type: functional
SUMO-activating enzyme [4] = molecular target: T1, SUMO-activating enzyme; test: inhibitors of in vitro SUMOylation cascade, primary screen, biochemical, HTRF, uHTS (AID 2006); type: protein-complex assay
[5] = cytotoxicity in HEK-293T cells, dose response, cytotoxicity control for BCR NF-kB inhibitor project, luminescence, B-cell screen hits (AID 489021); type: functional, cell-based;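 note: HEK-293T cells carrying an NF-kB luciferase reporter; cells exposed to compound for about 14 hours before viability readout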
[6] = molecular target: T2, Replicative DNA helicase DnaB (Mycobacterium tuberculosis, UniProt P9WMR3); test: DnaB intein splicing inhibitors, dose response, biochemical, cell-free fluorescence (AID 449749); type: functional
T2 sequence (P9WMR3 whole entry): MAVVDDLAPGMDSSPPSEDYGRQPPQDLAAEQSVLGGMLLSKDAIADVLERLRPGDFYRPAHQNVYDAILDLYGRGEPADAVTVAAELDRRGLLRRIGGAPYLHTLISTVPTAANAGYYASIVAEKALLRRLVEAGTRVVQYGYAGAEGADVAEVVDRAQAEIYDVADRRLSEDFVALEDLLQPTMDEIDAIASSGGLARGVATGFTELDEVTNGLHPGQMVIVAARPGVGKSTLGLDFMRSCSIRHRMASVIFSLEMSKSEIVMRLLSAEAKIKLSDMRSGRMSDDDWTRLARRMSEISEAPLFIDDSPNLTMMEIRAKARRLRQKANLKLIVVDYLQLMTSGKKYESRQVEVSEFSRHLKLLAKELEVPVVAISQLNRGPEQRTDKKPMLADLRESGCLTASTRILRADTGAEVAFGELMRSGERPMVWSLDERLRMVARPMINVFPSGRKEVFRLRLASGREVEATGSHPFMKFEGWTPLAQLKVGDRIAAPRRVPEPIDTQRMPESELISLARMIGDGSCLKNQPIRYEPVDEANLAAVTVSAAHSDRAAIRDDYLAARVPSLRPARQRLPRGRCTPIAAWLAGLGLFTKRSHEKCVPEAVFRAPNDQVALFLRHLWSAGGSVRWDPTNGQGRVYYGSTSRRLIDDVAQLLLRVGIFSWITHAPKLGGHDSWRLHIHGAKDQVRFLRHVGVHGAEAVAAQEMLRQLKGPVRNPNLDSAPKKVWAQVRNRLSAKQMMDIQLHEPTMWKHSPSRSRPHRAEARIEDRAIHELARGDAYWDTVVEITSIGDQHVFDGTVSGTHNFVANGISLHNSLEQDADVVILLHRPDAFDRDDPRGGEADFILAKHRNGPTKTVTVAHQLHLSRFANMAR

[7] = molecular target: Heat shock protein HSP 90-alpha (Homo sapiens, UniProt P07900); type: functional, organism-based
[8] = molecular target: T3, High affinity choline transporter 1 (Homo sapiens, UniProt Q9GZV3); test: CHT inhibitors, dose response, cell-based, 5-point CRC, membrane potential dye (AID 504840); type: functional
T3 sequence (Q9GZV3 whole entry): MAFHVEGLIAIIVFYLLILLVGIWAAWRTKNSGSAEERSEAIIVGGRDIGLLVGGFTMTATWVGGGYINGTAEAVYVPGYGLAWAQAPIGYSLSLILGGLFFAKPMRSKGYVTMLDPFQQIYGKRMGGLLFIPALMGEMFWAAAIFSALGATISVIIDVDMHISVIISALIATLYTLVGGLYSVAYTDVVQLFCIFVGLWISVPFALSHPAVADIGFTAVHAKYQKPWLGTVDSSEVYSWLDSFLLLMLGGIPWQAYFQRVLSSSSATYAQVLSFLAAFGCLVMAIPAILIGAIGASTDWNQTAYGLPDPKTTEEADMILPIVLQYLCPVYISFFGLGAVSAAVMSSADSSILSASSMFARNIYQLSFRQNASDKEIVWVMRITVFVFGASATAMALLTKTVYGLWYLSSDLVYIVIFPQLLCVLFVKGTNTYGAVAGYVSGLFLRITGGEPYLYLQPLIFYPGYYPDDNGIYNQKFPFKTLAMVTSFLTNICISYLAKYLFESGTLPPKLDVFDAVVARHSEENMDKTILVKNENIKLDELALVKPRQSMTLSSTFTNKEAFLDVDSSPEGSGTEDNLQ

Protein RecA = molecular target: T4, Protein RecA (Mycobacterium tuberculosis, UniProt P9WHJ3); test: Fluorescence Cell-Free Homogeneous Dose Retest to Identify Inhibitors of RecA-Intein Splicing Activity. [Related pubchem assays (depositor defined):AID2097, AID2223, AID489010, AID492950]; type: functional
T4 sequence (P9WHJ3 whole entry): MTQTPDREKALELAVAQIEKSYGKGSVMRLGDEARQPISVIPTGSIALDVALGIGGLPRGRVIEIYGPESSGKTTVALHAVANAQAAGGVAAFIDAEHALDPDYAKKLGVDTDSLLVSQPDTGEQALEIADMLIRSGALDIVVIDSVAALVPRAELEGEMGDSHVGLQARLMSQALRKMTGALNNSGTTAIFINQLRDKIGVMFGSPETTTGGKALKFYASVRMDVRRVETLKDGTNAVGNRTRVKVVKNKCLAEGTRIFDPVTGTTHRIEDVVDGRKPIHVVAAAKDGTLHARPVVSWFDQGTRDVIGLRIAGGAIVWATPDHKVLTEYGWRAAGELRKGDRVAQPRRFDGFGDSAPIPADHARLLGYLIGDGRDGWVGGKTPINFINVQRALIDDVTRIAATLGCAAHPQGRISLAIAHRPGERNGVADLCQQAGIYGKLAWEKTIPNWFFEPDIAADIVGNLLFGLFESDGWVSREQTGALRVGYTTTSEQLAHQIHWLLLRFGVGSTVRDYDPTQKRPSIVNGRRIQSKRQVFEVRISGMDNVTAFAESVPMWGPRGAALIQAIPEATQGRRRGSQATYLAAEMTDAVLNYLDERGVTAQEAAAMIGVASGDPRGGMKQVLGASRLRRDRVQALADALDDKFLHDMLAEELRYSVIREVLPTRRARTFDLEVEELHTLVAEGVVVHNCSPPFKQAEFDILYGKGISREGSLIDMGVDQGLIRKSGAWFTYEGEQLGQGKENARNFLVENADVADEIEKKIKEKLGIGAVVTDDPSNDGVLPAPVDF

INS1 = test: beta cell apoptosis inhibitors, cytokine rescue, dose response, luminescence, retest (AID 449756); type: functional, cell-based; conditions: Rattus norvegicus;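 note: cell death triggered by IL-1 beta plus TNF-alpha plus IFN-gamma mixture; protective hits raise ATP signal compared with cytokine alone wells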
[9] = A549 cell cytotoxicity, dose response, cytotoxicity control, plate reader, cherry-pick, antagonist series (AID 743412); type: functional, cell-based
[10] = HepG2 cell cytotoxicity, dose response, cytotoxicity control, plate reader, cherry-pick, antagonist series (AID 743416); type: functional, cell-based
[11] = LGR2 antagonists, dose response, cell-based, HEK293, CRE-luciferase reporter, cherry pick, set 2 (AID 743343); type: functional;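 note: transfected cells were stimulated with diluted bursicon conditioned medium after compound addition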
[12] = MC4R antagonists, dose response, counter-screen for LGR2 antagonist project, cell-based, plate reader, cherry pick (AID 743444); type: functional;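 note: transfected HEK 293 cells stimulated with alpha-MSH peptide; potency of inhibitors of the alpha-MSH evoked signal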
[13] = HEK293 cell cytotoxicity, dose response, cytotoxicity control, plate reader, cherry-picked samples (AID 743446); type: functional, cell-based

T1 sequence (Q9UBE0 whole entry): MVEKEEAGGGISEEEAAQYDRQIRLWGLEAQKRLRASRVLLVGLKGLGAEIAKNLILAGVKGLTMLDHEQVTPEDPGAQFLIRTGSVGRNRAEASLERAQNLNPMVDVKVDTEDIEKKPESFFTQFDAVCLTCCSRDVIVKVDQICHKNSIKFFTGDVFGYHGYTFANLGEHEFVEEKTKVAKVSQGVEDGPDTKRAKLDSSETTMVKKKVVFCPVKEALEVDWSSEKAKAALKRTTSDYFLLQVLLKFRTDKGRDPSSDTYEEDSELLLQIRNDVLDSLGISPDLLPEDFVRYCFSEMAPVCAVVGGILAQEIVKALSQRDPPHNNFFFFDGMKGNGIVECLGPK
T1 sequence (Q9UBT2 whole entry): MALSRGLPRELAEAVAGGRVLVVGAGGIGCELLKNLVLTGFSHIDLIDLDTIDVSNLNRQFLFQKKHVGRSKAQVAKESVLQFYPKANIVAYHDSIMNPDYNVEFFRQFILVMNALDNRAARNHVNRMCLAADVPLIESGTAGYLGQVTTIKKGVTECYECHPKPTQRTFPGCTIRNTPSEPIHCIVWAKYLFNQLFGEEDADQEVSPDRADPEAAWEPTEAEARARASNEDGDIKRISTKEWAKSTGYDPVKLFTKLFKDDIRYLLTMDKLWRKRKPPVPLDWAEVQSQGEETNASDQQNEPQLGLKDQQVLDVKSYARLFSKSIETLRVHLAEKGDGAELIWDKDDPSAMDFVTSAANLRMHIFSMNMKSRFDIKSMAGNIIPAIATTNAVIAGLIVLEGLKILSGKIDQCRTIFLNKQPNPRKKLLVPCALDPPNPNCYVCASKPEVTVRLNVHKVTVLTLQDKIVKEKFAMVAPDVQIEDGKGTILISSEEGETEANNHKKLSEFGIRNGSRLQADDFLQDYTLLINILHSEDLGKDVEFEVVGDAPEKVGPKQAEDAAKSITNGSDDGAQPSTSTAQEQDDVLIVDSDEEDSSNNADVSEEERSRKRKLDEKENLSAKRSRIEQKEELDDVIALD

O=C(Nc1nc(-c2ccccc2)cs1)c1ccccc1NS(=O)(=O)c1ccc(F)cc1
active: IC50 [1] 3.02 µM | IC50 [2] 2.18 µM | IC50 (SUMO-activating enzyme [3]) 7.97 µM | IC50 (SUMO-activating enzyme [4]) 18.4 µM | IC50 [5] 14.8 µM | AC50 [6] 2.17 µM | AC50 [7] 2.91 µM | IC50 [8] 13.8 µM | EC50 (Protein RecA) 8.85 µM | AC50 (INS1) 3.41 µM | AC50 [9] 14.6 µM | AC50 [10] 11.2 µM | AC50 [11] 28.6 µM | AC50 [12] 6.01 µM | AC50 [13] 3.39 µM
